Experimental data reported in patent US10106578B2, “Melanocortin-1 receptor-specific linear peptides” (Palatin Technologies, Inc., priority 2012, dated 2018).
pEC50, pKi: −log10 of the molar value. Where a SMILES comes first, the peptide text is derived from it. [ ]: non-standard residue; d: D form. Nle = CCCC[C@H](N)C(=O)O; Dab = NCC[C@H](N)C(=O)O; Sar = CNCC(=O)O

Columns and labels:
[1] = target: T1, hMCR-4 (Homo sapiens, UniProt P32245); test: Competitive inhibition binding assay using [I125]-NDP-α-MSH, hMCR-4 membranes; conditions: HEK-293 membranes, recombinant human MCR-4, [I125]-NDP-α-MSH; read-out: MC-4 Ki (average)
T1 construct: expressed in transfected cells; host or cells: HEK-293 cells (membrane homogenates)
Protocol: (§1) A competitive inhibition binding assay was performed using membrane homogenates prepared from HEK-293 cells that express recombinant hMCR-1a or hMCR-4 (in each instance where the h prefix refers to human), or alternatively membrane homogenates from B16-F10 mouse melanoma cells containing endogenous murine MCR-1. In the examples that follow, all MCR-1 and MCR-4 values are for human recombinant receptors, unless otherwise noted. Assays were performed in 96 well polypropylene round-bottom plates (VWR catalog number 12777-030). Membrane homogenates were incubated with 0.1 nM [I^125]-NDP-α-MSH (Perkin Elmer) and increasing concentrations of test peptides of the present invention in buffer containing 25 mM HEPES buffer (pH 7.5) with 100 mM NaCl, 2 mM CaCl2, 2 mM MgCl2, 0.3 mM 1,10-phenanthroline, and 0.2% bovine serum albumin. After incubation for 90 minutes at 37° C., the assay mixture was filtered onto GF/B Unifilter plates (Perkin-Elmer catalog number 6005177) and washed with 3 mL of ice-cold buffer per well. Filters were air dried and 35 μL of scintillation cocktail added to each well. Plates were counted in a Microbeta counter for bound radioactivity. Non-specific binding was measured by inhibition of binding of [I^125]-NDP-α-MSH in the presence of 1 μM NDP-α-MSH. Maximal specific binding (100%) was defined as the difference in radioactivity (cpm) bound to cell membranes in the absence and presence of 1 μM NDP-α-MSH. Each assay was conducted in duplicate and the actual mean values are described, with results less than 0% reported as 0%. Ki values for peptides of the present invention were determined using Graph-Pad PRISM® curve-fitting software.
(§2) Peptides of the following structures were synthesized and purified as described in Section 5 above, with the resulting peptide having the structure depicted. After synthesis and purification, the foregoing peptide was tested as described in Section 8 above, and average MCR-1 and MCR-4 Ki values determined as indicated. All Ki values were determined using [I^125]-NDP-α-MSH. All results are expressed in nM except for Emax values, which are percentage values.

[2] = target: T2, hMCR-1a (Homo sapiens, UniProt Q01726); test: Competitive inhibition binding assay using [I125]-NDP-α-MSH, hMCR-1a membranes; conditions: HEK-293 membranes, recombinant human MCR-1, [I125]-NDP-α-MSH; read-out: MC-1 Ki (average)
T2 construct: expressed in transfected cells; host or cells: HEK-293 cells (membrane homogenates)
Protocol: as §1, §2

[3] = target: T3, hMCR-1 (Homo sapiens, UniProt Q01726); test: Assay for agonist activity: cAMP accumulation in HBL human melanoma cells; assay type: cell-based; conditions: for Emax: compared to reference agonist NDP-α-MSH, read-out: MC-1 Emax (average; cAMP HBL); for pEC50: read-out: MC-1 EC50 (average; cAMP HBL)
T3 construct: endogenous in cells; host or cells: HBL human melanoma cell line
Description: Accumulation of intracellular cAMP was examined as a measure of the ability of the peptides of the present invention to elicit a functional response in a human melanoma cell line, HBL, that express hMCR-1 (see Kang, L., et al., “A selective small molecule agonist of melanocortin-1 receptor inhibits lipopolysaccharide-induced cytokine accumulation and leukocyte infiltration in mice,” J. Leuk. Biol. 80:897-904 (2006)) or HEK-293 cells that express hMCR-4. Confluent HBL cells that express hMCR-1 or HEK-293 cells that express recombinant hMCR-4 were detached from culture plates by incubation in enzyme-free cell dissociation buffer. Dispersed cells were suspended in Earle's Balanced Salt Solution containing 10 mM HEPES (pH 7.5), 1 mM MgCl2, 1 mM glutamine, 0.5% albumin and 0.3 mM 3-isobutyl-1-methyl-xanthine (IBMX), a phosphodiesterase inhibitor. The cells were plated in 96-well plates at a density of 0.4×10^5 cells per well for HBL cells and 0.5×10^5 cells per well for HEK-293 cells and pre-incubated for 10 minutes. Cells were exposed for 15 minutes at 37° C. to peptides of the present invention dissolved in DMSO (final DMSO concentration of 1%) at a concentration range of 0.05-5000 nM in a total assay volume of 200 μL. NDP-α-MSH was used as the reference agonist. cAMP levels were determined by an HTRF® cAMP cell-based assay system from Cisbio Bioassays utilizing cryptate-labeled anti-cAMP and d2-labeled cAMP, with plates read on a Perkin-Elmer Victor plate reader at […]. Data analysis was performed by nonlinear regression analysis with Graph-Pad PRISM® software. Maximum efficacy (Emax) values were determined for each test peptide of the present invention, compared to that achieved by the reference melanocortin agonist NDP-α-MSH.
as §2

T1 sequence (P32245 whole entry): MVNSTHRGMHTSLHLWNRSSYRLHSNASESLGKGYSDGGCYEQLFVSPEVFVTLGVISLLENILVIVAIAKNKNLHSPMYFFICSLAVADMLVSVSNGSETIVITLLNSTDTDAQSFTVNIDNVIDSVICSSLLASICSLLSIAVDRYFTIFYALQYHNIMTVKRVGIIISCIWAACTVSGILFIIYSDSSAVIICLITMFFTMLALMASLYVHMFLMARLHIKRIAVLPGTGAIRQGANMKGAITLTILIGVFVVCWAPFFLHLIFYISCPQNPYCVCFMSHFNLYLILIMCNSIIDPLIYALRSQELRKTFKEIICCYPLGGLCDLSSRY
T3 sequence (Q01726 whole entry): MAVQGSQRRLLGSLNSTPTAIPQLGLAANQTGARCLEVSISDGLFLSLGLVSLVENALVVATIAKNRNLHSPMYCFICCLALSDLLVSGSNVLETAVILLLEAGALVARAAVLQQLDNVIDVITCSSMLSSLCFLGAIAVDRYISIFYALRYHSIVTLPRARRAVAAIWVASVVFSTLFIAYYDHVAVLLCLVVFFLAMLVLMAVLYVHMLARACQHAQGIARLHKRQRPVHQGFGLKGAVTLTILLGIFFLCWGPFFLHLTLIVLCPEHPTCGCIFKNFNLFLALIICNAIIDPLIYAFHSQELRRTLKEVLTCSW
T2 sequence (Q01726 whole entry): as above

Compound	pKi [1]	pKi [2]	Emax [3] [%]	pEC50 [3]
CCCC[C@H](NC(C)=O)C(=O)N[C@@H](C)C(=O)N[C@@H](CCN)C(=O)N[C@H](Cc1ccccc1)C(=O)N[C@@H](CCCNC(=N)N)C(=O)N[C@@H](C)C(=O)N[C@@H](Cc1c[nH]c2ccccc12)C(N)=O [Example 9.22, Ac-Nle-Ala-Dab-D-Phe-Arg-Ala-Trp-NH2] (Ac-[Nle]A[Dab][dF]RAW-NH2)	5.11	8.70	101	
CCCC[C@H](NC(C)=O)C(=O)N[C@@H](C)C(=O)N[C@@H](Cc1c[nH]cn1)C(=O)N[C@H](Cc1ccccc1)C(=O)N[C@@H](CCCNC(=N)N)C(=O)N[C@@H](C)C(=O)N[C@H](Cc1c[nH]c2ccccc12)C(N)=O [Example 9.9, Ac-Nle-Ala-His-D-Phe-Arg-Ala-D-Trp-NH2] (Ac-[Nle]AH[dF]RA[dW]-NH2)	6.67	8.15	70	
CCCC[C@H](NC(C)=O)C(=O)N[C@@H](C)C(=O)N[C@@H](Cc1c[nH]cn1)C(=O)N[C@H](Cc1ccccc1)C(=O)N[C@@H](CCCNC(=N)N)C(=O)N1CCC[C@@H]1C(=O)N[C@@H](Cc1c[nH]c2ccccc12)C(N)=O [Example 9.11, Ac-Nle-Ala-His-D-Phe-Arg-D-Pro-Trp-NH2] (Ac-[Nle]AH[dF]R[dP]W-NH2)	5.21	7.85	70	9.00
CCCC[C@H](NC(C)=O)C(=O)N[C@@H](C)C(=O)N[C@@H](Cc1c[nH]cn1)C(=O)N[C@H](Cc1ccccc1)C(=O)N[C@@H](CCCNC(=N)N)C(=O)N(C)CC(=O)N[C@@H](Cc1c[nH]c2ccccc12)C(N)=O [Example 9.4, Ac-Nle-Ala-His-D-Phe-Arg-Sar-Trp-NH2] (Ac-[Nle]AH[dF]R[Sar]W-NH2)	6.06	8.70	77	9.77
